Legend:
Format in all cases: functional
786-0 [1] = experiment: Cytotoxicity against human 786-0 cells assessed as cell growth at 0.1 uM after 48 hrs by sulforhodamine B assay relative to control; settings: 786-0, 48 h, read-out: Activity
MDA-MB-231 = experiment: Cytotoxicity against human MDA-MB-231 cells assessed as cell growth at 0.1 uM after 48 hrs by sulforhodamine B assay relative to control; settings: MDA-MB-231, 48 h, read-out: Activity
A498 = experiment: Cytotoxicity against human A498 cells assessed as cell growth at 1 uM after 48 hrs by sulforhodamine B assay relative to control; settings: A498, 48 h, read-out: Activity
IGROV-1 [2] = experiment: Cytotoxicity against human IGROV1 cells assessed as cell growth at 0.01 uM after 48 hrs by sulforhodamine B assay relative to control; settings: IGROV-1, 48 h, read-out: Activity
BT-549 = experiment: Cytotoxicity against human BT549 cells assessed as cell growth at 100 uM after 48 hrs by sulforhodamine B assay relative to control; settings: BT-549, 48 h, read-out: Activity
HT-29 = experiment: Cytotoxicity against human HT-29 cells assessed as cell growth at 100 uM after 48 hrs by sulforhodamine B assay relative to control; settings: HT-29, 48 h, read-out: Activity
786-0 [3] = experiment: Cytotoxicity against human 786-0 cells assessed as cell growth at 1 uM after 48 hrs by sulforhodamine B assay relative to control; settings: 786-0, 48 h, read-out: Activity
MOLT-4 [4] = experiment: Cytotoxicity against human MOLT4 cells assessed as cell growth at 10 uM after 48 hrs by sulforhodamine B assay relative to control; settings: MOLT-4, 48 h, read-out: Activity
MOLT-4 [5] = experiment: Cytotoxicity against human MOLT4 cells assessed as growth inhibition after 48 hrs by sulforhodamine B assay; settings: MOLT-4, 48 h; for CC50: read-out: LC50 (the source's name)
HCC 2998 [6] = experiment: Cytotoxicity against human HCC2998 cells assessed as cell growth at 100 uM after 48 hrs by sulforhodamine B assay relative to control; settings: HCC 2998, 48 h, read-out: Activity
RXF 393 [7] = experiment: Cytotoxicity against human RXF393 cells assessed as cell growth at 1 uM after 48 hrs by sulforhodamine B assay relative to control; settings: RXF 393, 48 h, read-out: Activity
HCT-15 [8] = experiment: Cytotoxicity against human HCT15 cells assessed as cell growth at 1 uM after 48 hrs by sulforhodamine B assay relative to control; settings: HCT-15, 48 h, read-out: Activity
U-251 = experiment: Cytotoxicity against human U251 cells assessed as cell growth at 0.01 uM after 48 hrs by sulforhodamine B assay relative to control; settings: U-251, 48 h, read-out: Activity
RXF 393 [9] = experiment: Cytotoxicity against human RXF393 cells assessed as cell growth at 0.1 uM after 48 hrs by sulforhodamine B assay relative to control; settings: RXF 393, 48 h, read-out: Activity
HCT-15 [10] = experiment: Cytotoxicity against human HCT15 cells assessed as cell growth at 0.1 uM after 48 hrs by sulforhodamine B assay relative to control; settings: HCT-15, 48 h, read-out: Activity
786-0 [11] = experiment: Cytotoxicity against human 786-0 cells assessed as cell growth at 0.01 uM after 48 hrs by sulforhodamine B assay relative to control; settings: 786-0, 48 h, read-out: Activity
PC-3 = experiment: Cytotoxicity against human PC3 cells assessed as growth inhibition after 48 hrs by sulforhodamine B assay; settings: PC-3, 48 h
OVCAR-8 = experiment: Cytotoxicity against human OVCAR8 cells assessed as cell growth at 0.01 uM after 48 hrs by sulforhodamine B assay relative to control; settings: OVCAR-8, 48 h, read-out: Activity
HCT-15 [12] = experiment: Cytotoxicity against human HCT15 cells assessed as cell growth at 100 uM after 48 hrs by sulforhodamine B assay relative to control; settings: HCT-15, 48 h, read-out: Activity
NCI-H23 = experiment: Cytotoxicity against human NCI-H23 cells assessed as growth inhibition after 48 hrs by sulforhodamine B assay; settings: NCI-H23, 48 h; for CC50: read-out: LC50 (the source's name)
TK-10 = experiment: Cytotoxicity against human TK10 cells assessed as cell growth at 10 uM after 48 hrs by sulforhodamine B assay relative to control; settings: TK-10, 48 h, read-out: Activity
OVCAR-4 = experiment: Cytotoxicity against human OVCAR4 cells assessed as cell growth at 10 uM after 48 hrs by sulforhodamine B assay relative to control; settings: OVCAR-4, 48 h, read-out: Activity
HCC 2998 [13] = experiment: Cytotoxicity against human HCC2998 cells assessed as cell growth at 1 uM after 48 hrs by sulforhodamine B assay relative to control; settings: HCC 2998, 48 h, read-out: Activity
NCI/ADR-RES = experiment: Cytotoxicity against human NCI/ADR-RES cells assessed as cell growth at 10 uM after 48 hrs by sulforhodamine B assay relative to control; settings: read-out: Activity
ACHN = experiment: Cytotoxicity against human ACHN cells assessed as cell growth at 0.01 uM after 48 hrs by sulforhodamine B assay relative to control; settings: read-out: Activity
RPMI-8226 = experiment: Cytotoxicity against human RPMI8226 cells assessed as growth inhibition after 48 hrs by sulforhodamine B assay; settings: RPMI-8226, 48 h
MDA-MB-435 = experiment: Cytotoxicity against human MDA-MB-435 cells assessed as cell growth at 0.1 uM after 48 hrs by sulforhodamine B assay relative to control; settings: MDA-MB-435, 48 h, read-out: Activity
IGROV-1 [14] = experiment: Cytotoxicity against human IGROV1 cells assessed as cell growth at 10 uM after 48 hrs by sulforhodamine B assay relative to control; settings: IGROV-1, 48 h, read-out: Activity
K562 = experiment: Cytotoxicity against human K562 cells assessed as cell growth at 1 uM after 48 hrs by sulforhodamine B assay relative to control; settings: K562, 48 h, read-out: Activity
UACC-62 = experiment: Cytotoxicity against human UACC62 cells assessed as cell growth at 1 uM after 48 hrs by sulforhodamine B assay relative to control; settings: UACC-62, 48 h, read-out: Activity
SNB-19 = experiment: Cytotoxicity against human SNB19 cells assessed as cell growth at 1 uM after 48 hrs by sulforhodamine B assay relative to control; settings: SNB-19, 48 h, read-out: Activity
UO-31 = experiment: Cytotoxicity against human UO31 cells assessed as cell growth at 0.1 uM after 48 hrs by sulforhodamine B assay relative to control; settings: UO-31, 48 h, read-out: Activity
SK-OV-3 = experiment: Cytotoxicity against human SKOV3 cells assessed as cell growth at 0.1 uM after 48 hrs by sulforhodamine B assay relative to control; settings: SK-OV-3, 48 h, read-out: Activity
OVCAR-5 = experiment: Cytotoxicity against human OVCAR5 cells assessed as cell growth at 0.1 uM after 48 hrs by sulforhodamine B assay relative to control; settings: OVCAR-5, 48 h, read-out: Activity
SK-MEL-28 [15] = experiment: Cytotoxicity against human SK-MEL-28 cells assessed as cell growth at 100 uM after 48 hrs by sulforhodamine B assay relative to control; settings: SK-MEL-28, 48 h, read-out: Activity
SK-MEL-28 [16] = experiment: Cytotoxicity against human SK-MEL-28 cells assessed as cell growth at 0.01 uM after 48 hrs by sulforhodamine B assay relative to control; settings: SK-MEL-28, 48 h, read-out: Activity

Structure (SMILES)	growth at 0.1 µM (786-0 [1])	growth at 0.1 µM (MDA-MB-231)	growth at 1 µM (A498)	growth at 0.01 µM (IGROV-1 [2])	growth at 100 µM (BT-549)	growth at 100 µM (HT-29)	growth at 1 µM (786-0 [3])	growth at 10 µM (MOLT-4 [4])	TGI (MOLT-4 [5])	CC50 (MOLT-4 [5])	growth at 100 µM (HCC 2998 [6])	growth at 1 µM (RXF 393 [7])	growth at 1 µM (HCT-15 [8])	growth at 0.01 µM (U-251)	growth at 0.1 µM (RXF 393 [9])	growth at 0.1 µM (HCT-15 [10])	growth at 0.01 µM (786-0 [11])	LC50 (PC-3)	TGI (PC-3)	growth at 0.01 µM (OVCAR-8)	also measured
COc1cc(C(=O)/C=C/c2cc(-c3cc(OC)c(OC)c(OC)c3)n[nH]2)cc(OC)c1OC	105%	104%	80%	104%	-94%	-58%	80%	-4%	8.95 µM	> 100 µM	-89%	65%	76%	96%	88%	94%	101%	7.36 µM	3.29 µM	100%	growth at 100 µM (HCT-15 [12]): -72%; TGI (NCI-H23): 9.9 µM; CC50 (NCI-H23): 64.3 µM; growth at 10 µM (TK-10): -98%; growth at 10 µM (OVCAR-4): -100%; growth at 1 µM (HCC 2998 [13]): 99%; growth at 10 µM (NCI/ADR-RES): 12%; growth at 0.01 µM (ACHN): 103%; LC50 (RPMI-8226): > 100 µM; TGI (RPMI-8226): 2.06 µM; growth at 0.1 µM (MDA-MB-435): 94%; growth at 10 µM (IGROV-1 [14]): 1%; growth at 1 µM (K562): 94%; growth at 1 µM (UACC-62): 90%; growth at 1 µM (SNB-19): 82%; growth at 0.1 µM (UO-31): 90%; growth at 0.1 µM (SK-OV-3): 95%; growth at 0.1 µM (OVCAR-5): 101%; growth at 100 µM (SK-MEL-28 [15]): -97%; growth at 0.01 µM (SK-MEL-28 [16]): 101%
COc1ccc(C(=O)/C=C/c2cc(-c3cc(OC)c(OC)c(OC)c3)n[nH]2)cc1OC	94%	101%	78%	98%	-75%	-81%	74%	-30%	5.56 µM	> 100 µM	-86%	72%	65%	96%	100%	98%	96%	5.76 µM	2.8 µM	97%	growth at 100 µM (HCT-15 [12]): -60%; TGI (NCI-H23): 5.24 µM; CC50 (NCI-H23): 22.7 µM; growth at 10 µM (TK-10): 100%; growth at 10 µM (OVCAR-4): 23%; growth at 1 µM (HCC 2998 [13]): 116%; growth at 10 µM (NCI/ADR-RES): 10%; growth at 0.01 µM (ACHN): 101%; LC50 (RPMI-8226): > 100 µM; TGI (RPMI-8226): 1.11 µM; growth at 0.1 µM (MDA-MB-435): 92%; growth at 10 µM (IGROV-1 [14]): -84%; growth at 1 µM (K562): 75%; growth at 1 µM (UACC-62): 95%; growth at 1 µM (SNB-19): 73%; growth at 0.1 µM (UO-31): 87%; growth at 0.1 µM (SK-OV-3): 105%; growth at 0.1 µM (OVCAR-5): 88%; growth at 100 µM (SK-MEL-28 [15]): -90%; growth at 0.01 µM (SK-MEL-28 [16]): 97%
COc1cc(-c2cc(/C=C/C(=O)c3ccc(F)c(F)c3)[nH]n2)cc(OC)c1OC	95%	96%	81%	97%	-58%	-67%	93%	-4%	9.09 µM	> 100 µM	-11%	82%	88%	97%	96%	95%	95%	> 100 µM	5.72 µM	95%	growth at 100 µM (HCT-15 [12]): 2%; TGI (NCI-H23): 8.5 µM; CC50 (NCI-H23): > 100 µM; growth at 10 µM (TK-10): -13%; growth at 10 µM (OVCAR-4): 17%; growth at 1 µM (HCC 2998 [13]): 99%; growth at 10 µM (NCI/ADR-RES): 11%; growth at 0.01 µM (ACHN): 102%; LC50 (RPMI-8226): > 100 µM; TGI (RPMI-8226): 6.01 µM; growth at 0.1 µM (MDA-MB-435): 90%; growth at 10 µM (IGROV-1 [14]): 14%; growth at 1 µM (K562): 102%; growth at 1 µM (UACC-62): 88%; growth at 1 µM (SNB-19): 82%; growth at 0.1 µM (UO-31): 86%; growth at 0.1 µM (SK-OV-3): 99%; growth at 0.1 µM (OVCAR-5): 93%; growth at 100 µM (SK-MEL-28 [15]): -39%; growth at 0.01 µM (SK-MEL-28 [16]): 102%
